Assay results as given in patent US20190262355A1, “COMBINATION OF A BRD4 INHIBITOR AND AN ANTIFOLATE FOR THE THERAPY OF CANCER” (CeMM-Forschungszentrum für Molekulare Medizin GmbH, priority 2016, published 2019).

Assays:
A549 cells = assay: Cell viability of A549 cells after MTHFD1 knock-down; format: cell-based; conditions: 72 hours (S)-JQ1 (FIG. 21A)
Method: KBM7 (human chronic myelogenous leukemia cell lines), MV4-11 (biphenotypic B myelomonocytic leukemia), MEG-01 (human chronic myelogenous leukemia), K-562 (human chronic myelogenous leukemia) and HAP1 (KBM7-derived) cell lines were cultured in Iscove's Modified Dulbecco's Medium (IMDM, Gibco), supplemented with 10% Fetal Bovine Serum (FBS; Gibco). HEK293T (human embryonic kidney) and HELA (cervix adenocarcinoma) cell lines were cultured in Dulbecco's Modified Eagles Medium (DMEM, Gibco) supplemented with 10% FBS. MOLM-13 (human acute monocytic leukemia), NOMO-1 (human acute monocytic leukemia) and A549 (lung carcinoma) cell lines were cultured in RPMI-1640 (Roswell Park Memorial Institute, Gibco) supplemented with 10% FBS. All the mentioned cell lines were incubated in 5% CO2 atmosphere at 37° C.

[1] = test system: panel of six cell lines (four not sensitive to BRD4 inhibition, plus KBM7 and HAP1); assay: Cell viability of cancer cell lines, single agents and combination; format: cell-based, human; conditions: NOMO-1 the most sensitive to MTX (FIG. 13A, 13B)
Method: HEK293T (human embryonic kidney) and HELA (cervix adenocarcinoma) cell lines were cultured in Dulbecco's Modified Eagles Medium (DMEM, Gibco) supplemented with 10% FBS. […] All the mentioned cell lines were incubated in 5% CO2 atmosphere at 37° C.

WT-KBM7 cells = assay: Cell cycle profile by PI staining and FACS (diploidization); format: cell-based, human; conditions: treated overnight during one week, PI incorporation and FACS (FIG. 6D)
Method: For cell cycle analysis, 1 million cells were fixed with 70% ethanol for 24 hours, washed with PBS/1% BSA/0.1% Tween and incubated with RNase for 30 minutes. Nuclei were stained with 5 μg/ml PI (propidium iodide, Sigma) for 10 minutes prior to FACS analysis (BD FACSCalibur Flow Cytometer).
The prerequisite for effective GT genetic screens is a haploid system where monoallelic disruptive GT integration results in gene knock-out (KO). Therefore, KBM7 cells, a chronic myeloid leukemia cell line with near haploid karyotype, were chosen for the generation of the BRD4 reporter cell lines as previously described^15. […] Propidium iodide (PI) incorporation and FACS analysis were used to assay the cell cycle profile of several REDS clones in order to select a haploid clone suitable for GT-based genetic screen. […] REDS1 was the only clonal cell line with haploid karyotype (see FIG. 6B), also confirmed by metaphase spreads (see FIG. 6C).

BRD4-MTHFD1 interaction = target: T1, BRD4-MTHFD1 interaction (Homo sapiens, UniProt O60885+P11586); assay: MTHFD1 pull-down on HAP1 whole cell lysates (BRD4-MTHFD1 interaction); format: binding; conditions: HAP1 whole cell lysates treated with 50 μM (FIG. 9I)
T1 construct: MTHFD1 pull-down performed on HAP1 whole cell lysates treated with 50 μM (S)-JQ1, MTX; endogenous in cells; host or cells: HAP1
Method: For immunoprecipitation, 1 mg of protein extract was incubated overnight at 4° C. with 10 μl of Dynabeads (either A or G, Life technology) preincubated for 2 hours at 4° C. with 1 μg of BRD4 (ab128874, Abcam), MTHFD1 (A8, Santa Cruz) or GFP (G10362, Life Technology) antibodies.

BRD4 = assay: REDS reporter cell line, RFP expression (Redness) on BRD4 inhibition; format: cell-based, human
Source text: Live cell imaging pictures were taken from cells seeded on clear flat bottom 96-well or 384-well plates (Corning), with the Operetta High Content Screening System (PerkinElmer), 20× objective and non-confocal mode. RFP quantification was done using the basic PerkinElmer software for nuclei detection and analysis, adapted for the nucleus diameter range of the specific cell line used (KBM7, 13 μm). Only RFP positive nuclei were detected and counted.
The prerequisite for effective GT genetic screens is a haploid system where monoallelic disruptive GT integration results in gene knock-out (KO). Therefore, KBM7 cells, a chronic myeloid leukemia cell line with near haploid karyotype, were chosen for the generation of the BRD4 reporter cell lines as previously described^15. […] Propidium iodide (PI) incorporation and FACS analysis were used to assay the cell cycle profile of several REDS clones in order to select a haploid clone suitable for GT-based genetic screen.
The suitability of the REDS1 clone for a GT-based genetic screen was then further validated.

A549 xenograft = A549 xenograft mouse model; format: in vivo; conditions: NOD SCID gamma mice; 30 mg/kg (S)-JQ1 i.p. five times per week and/or 25 mg/kg MTX i.p. twice weekly from day 19 to day 43 (FIG. 21B-D)
Method: Mouse xenograft studies were performed as described previously^35. 2×10^6 A549 cells, diluted 1:1 in matrigel, were transplanted subcutaneously into NOD SCID gamma mice. Treatment (30 mg/kg (S)-JQ1 by intraperitoneal injection five times per week, and 25 mg/kg MTX per intraperitoneal injection twice weekly) was started when tumors were established, 19 days post transplantation. Tumor volumes were evaluated twice a week by measuring two perpendicular diameters with calipers. Tumor volume was calculated using the following equation: (width*width*length)/2. Treatment was performed according to an animal licence protocol approved by the Bundesministerium für Wissenschaft and Forschung (BMWF-66.009/0280-II/3b/2012). At day 43 mice were sacrificed and tumors excised and weighted.

nuclear folate pool = assay: Folate metabolites in nuclear and cytosolic fractions of HAP1 cells (LC-MS/MS); format: cell-based, human; conditions: 6 hours, MTX and (S)-JQ1 1 μM, dBET6 0.5 μM (FIG. 19B)
Method: In order to quantify folates in the nuclear and cytosolic fractions, 20 millions of HAP1 cells per condition were washed twice with cold PBS, and collected into 50 ml falcon tube by centrifugation for 5 minutes at 280 g and 4° C. Cell lysis was performed on ice in the dark by incubating cell pellets with 1:5 hypotonic lysis buffer for 10 minutes. Nuclei were collected by centrifugation for 5 minutes at 420 g and 4° C. Supernatants (cytosolic fractions) were also collected. Both fractions were immediately snap frozen. For nucleus samples, 10 μL of ISTD mixture was added to nucleus pellet in 1.5 mL Eppendorf tube followed by addition of 145 μL of ice-cold extraction solvent (10 mg/mL ascorbic acid solution in 80% methanol, 20% water, v/v). The samples were vortexed for 10 seconds, afterwards incubated on ice for 3 min and vortexed again for 10 seconds. After centrifugation (14000 rpm, 10 min, 4° C.), the supernatant was collected into HPLC vials. […] An Acquity UHPLC system (Waters) coupled with Xevo TQ-MS (Waters) triple quadrupole mass spectrometer was used for quantitative analysis of metabolites. […] Quantification of all metabolites was performed using MassLynx V4.1 software from Waters. The seven-point linear calibration curves with internal standardization and 1/× weighing was constructed for the quantification.

[2] = test system: MTHFD1 nuclear localization; assay: Nuclear vs cytosol fractionation Western blot in HAP1 cells; format: cell-based, human; conditions: MTX 1 μM, 24 hours (FIG. 2D)
Method: For Western Blot, proteins were separated on polyacrylamide gels with SDS running buffer (50 mM Tris, 380 mM Glycine, 7 mM SDS) and transferred to nitrocellulose blotting membranes. All membranes were blocked with blocking buffer (5% (m/v) milk powder (BioRad) in TBST (Tris-Buffered Saline with Tween: 50 mM Tris (tris (hydroxymethyl)aminomethane), 150 mM NaCl, 0.05% (v/v) Tween 20, adjusted to pH 7.6). Proteins were probed with antibodies against BRD4 (ab128874, 1:1000, Abcam), Actin (ab16039, 1:1000, Abcam), MTHFD1 (ab70203, Abcam; H120, Santa Cruz; A8, Santa Cruz; all used at 1:1000), GFP (G10362, 1:1000, Life Technology), RCC1 (C-20, 1:1000, Santa Cruz), β-Tubulin (T-4026, 1:1000, Sigma), SHMT1 (ab186130, 1:1000, Abcam) and H2B (ab156197, 1:1000, Abcam) and detected by HRP (horseradish peroxidase) conjugated donkey anti-rabbit IgG antibody (ab16284, 1:5000, Abcam) or donkey anti-mouse IgG antibody (Pierce) and visualized with the Pierce ECL Western Blotting substrate (Amersham), according to the provided protocol.

chromatin-bound BRD4 = target: T2, chromatin-bound BRD4 (Homo sapiens, UniProt O60885); assay: Western blot of chromatin associated proteins: BRD4; format: cell-based; conditions: HAP1 cells, MTX 1 μM, 2 or 24 hours (FIG. 2C)
T2 construct: Western Blot assay performed on chromatin associated protein samples extracted from HAP1 cells treated with the indicated compounds; endogenous in cells; host or cells: HAP1
Method: Cell fractionation and chromatin enrichment was carried out as previously described^29 with some adaptations. Briefly, for 100 million cells, the chromatin enriched pellet was taken up in 250 μl benzonase digestion buffer (15 mM HEPES, 1 mM EDTA, 1 mM EGTA, 0.1% NP40, protease inhibitor cocktail (cOmplete, Roche)) after washing, and sonicated for 120 seconds on the Covaris S220 focused-ultrasonicator with the following settings: Peak Power 140; Duty-Factor 10.0; Cycles/Burst 200. After addition of 0.25 U benzonase and 2.5 μg RNase, the chromatin was incubated for 40 minutes at 4° C. on a rotary shaker. 2× SDS lysis buffer (100 mM HEPES, 4% SDS, 2 mM PMSF and protease inhibitor cocktail (cOmplete, Roche)) was added to the samples in a 1:1 ratio and incubated for 10 minutes at room temperature followed by 5 minutes denaturation at 99° C. After centrifugation at 16,000 g for 10 minutes at room temperature, the supernatant was transferred to a new tube.

T1 sequence (P11586 whole entry, other chains not shown): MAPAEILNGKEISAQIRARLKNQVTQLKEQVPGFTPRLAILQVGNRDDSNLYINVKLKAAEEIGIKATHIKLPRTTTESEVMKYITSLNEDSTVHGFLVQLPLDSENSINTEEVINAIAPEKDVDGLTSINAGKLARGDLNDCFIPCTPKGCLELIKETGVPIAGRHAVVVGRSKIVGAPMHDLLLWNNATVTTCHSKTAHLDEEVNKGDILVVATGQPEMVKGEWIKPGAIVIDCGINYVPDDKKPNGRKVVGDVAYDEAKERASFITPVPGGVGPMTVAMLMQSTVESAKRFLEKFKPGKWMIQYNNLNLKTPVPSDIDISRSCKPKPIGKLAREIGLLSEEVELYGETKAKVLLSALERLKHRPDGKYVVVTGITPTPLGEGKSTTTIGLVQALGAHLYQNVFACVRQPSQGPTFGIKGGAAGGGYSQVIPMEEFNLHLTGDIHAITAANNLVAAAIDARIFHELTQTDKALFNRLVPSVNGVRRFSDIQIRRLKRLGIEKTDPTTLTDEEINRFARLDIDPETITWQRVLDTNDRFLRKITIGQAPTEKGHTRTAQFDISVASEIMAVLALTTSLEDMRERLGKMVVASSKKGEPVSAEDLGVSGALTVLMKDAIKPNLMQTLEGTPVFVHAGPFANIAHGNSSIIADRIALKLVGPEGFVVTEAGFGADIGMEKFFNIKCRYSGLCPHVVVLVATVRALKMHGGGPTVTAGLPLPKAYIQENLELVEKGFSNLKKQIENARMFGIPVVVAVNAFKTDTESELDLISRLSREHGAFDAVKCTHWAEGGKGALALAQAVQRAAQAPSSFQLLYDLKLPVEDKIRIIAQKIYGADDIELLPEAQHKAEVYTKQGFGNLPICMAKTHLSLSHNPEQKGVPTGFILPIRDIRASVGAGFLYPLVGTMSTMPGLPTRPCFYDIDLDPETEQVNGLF

| Compound | sensitivity to (S)-JQ1 after shRNA for MTHFD1 (A549 cells) | sensitivity of cell lines to single treatment (dose response curves) [1] | diploidization of WT-KBM7 (cell cycle profile) (WT-KBM7 cells) | effect on BRD4-MTHFD1 interaction in MTHFD1 pull-down (BRD4-MTHFD1 interaction) | RFP expression detected by live cell imaging (BRD4; REDS1 cells, 1 μM, 24 hours (FIG. 7B)) | expression of the reporter gene RFP in REDS detected by FACS (BRD4; REDS clones, 0.5 μM (S)-JQ1 (FIG. 6A)) | tumor growth (A549 xenograft) | changes in the nuclear folate pool (nuclear folate pool) | MTHFD1 (or SHMT1) nuclear localization [2] | Redness after MTX treatment (BRD4; REDS reporter cells, three days of MTX (FIG. 13C)) | BRD4 levels on chromatin after MTX (chromatin-bound BRD4) |
| --- | --- | --- | --- | --- | --- | --- | --- | --- | --- | --- | --- |
| Cc1sc2c(c1C)C(c1ccc(Cl)cc1)=N[C@@H](CC(=O)OC(C)(C)C)c1nnc(C)n1-2 [(S)-JQ1] | increased sensitivity | low sensitivity | induced WT-KBM7 diploidization | unaffected | robustly expressed RFP | rapid and consistent expression of the reporter gene red fluorescent protein (RFP) | not impaired |  |  |  |  |
| CN(Cc1cnc2nc(N)nc(N)c2n1)c1ccc(C(=O)N[C@@H](CCC(=O)O)C(=O)O)cc1 [MTX, methotrexate] |  | moderate to low sensitivity |  | unaffected |  |  | not impaired | highly correlated characteristic changes specifically in the nuclear folate pool | not impairing MTHFD1 (or SHMT1) nuclear localization | only weakly increased | did not affect BRD4 levels |
